Assays:
[1] = cited from earlier work
[2] = tested on: template RNA, influenza A(H3N2) NA region 675-1075 bases; assay: RT-SmartAmp nucleic acid amplification inhibition due to SDS (DNA polymerase inhibitory activity), without rhinal mucosa; format: biochemical; details: 0.5% Triton X-100 in reaction solution, 5 μL of 0.1% SDS solution added; FIG. 10

Molecule	pKa [1]	nucleic acid amplification activity (mitigation of inhibition due to SDS) [2]
O=S(=O)(O)CCN1CCOCC1 [MES]	6.15	–
Triton X-100	–	prominent nucleic acid amplification was recognized
